The NIST ThermoML archive (doi:10.1016/j.jct.2014.07.017)
± gives the expanded uncertainty stated by the source.

Test: mn = molality of the nth substance listed, in mol/kg
Settings: 298.15 K, 100 kPa, Liquid, Direct current cell with electrodes

CCNCC(O)c1cccc(O)c1.Cl (stereo unspecified) [1-(3-hydroxyphenyl)-2-ethylaminoethanol hydrochloride] + O
Settings | electrical conductivity [S/m]
m1 = 0.01028 | 0.03 ± 0.001
m1 = 0.01115 | 0.033 ± 0.001
m1 = 0.01209 | 0.037 ± 0.001
m1 = 0.01313 | 0.041 ± 0.001
m1 = 0.01425 | 0.045 ± 0.001
m1 = 0.01546 | 0.051 ± 0.001
m1 = 0.01677 | 0.056 ± 0.001
m1 = 0.0182 | 0.061 ± 0.001
m1 = 0.01896 | 0.065 ± 0.001
m1 = 0.01974 | 0.068 ± 0.001
m1 = 0.02057 | 0.072 ± 0.001
m1 = 0.02143 | 0.075 ± 0.001
m1 = 0.02232 | 0.078 ± 0.001
m1 = 0.02325 | 0.082 ± 0.001
m1 = 0.02422 | 0.087 ± 0.001
m1 = 0.02523 | 0.09 ± 0.001
m1 = 0.02628 | 0.095 ± 0.001
m1 = 0.02737 | 0.101 ± 0.001
m1 = 0.02851 | 0.105 ± 0.001
m1 = 0.0297 | 0.109 ± 0.001
m1 = 0.03094 | 0.115 ± 0.001
m1 = 0.03222 | 0.12 ± 0.001
m1 = 0.03357 | 0.126 ± 0.001
m1 = 0.03497 | 0.132 ± 0.001
m1 = 0.03643 | 0.138 ± 0.001
m1 = 0.03795 | 0.145 ± 0.002
m1 = 0.03953 | 0.15 ± 0.002
m1 = 0.04117 | 0.155 ± 0.002
m1 = 0.04289 | 0.159 ± 0.002
m1 = 0.04468 | 0.165 ± 0.002
m1 = 0.04654 | 0.171 ± 0.002
m1 = 0.04848 | 0.177 ± 0.002
m1 = 0.0505 | 0.185 ± 0.002
m1 = 0.0526 | 0.191 ± 0.002
m1 = 0.05479 | 0.195 ± 0.002
m1 = 0.05708 | 0.203 ± 0.002
m1 = 0.05945 | 0.208 ± 0.002
m1 = 0.06193 | 0.216 ± 0.002
m1 = 0.06451 | 0.224 ± 0.002
m1 = 0.0672 | 0.232 ± 0.002
m1 = 0.07 | 0.241 ± 0.002
